In EP0802184B1, “N-Benzyl-2-phenylindoles as estrogenic agents” (Wyeth, priority 1996, dated 1997):
Blank lines part the entries; values can stand above or below the compound they belong to.

Experiments:
Ishikawa cells = assay: Ishikawa Cell Alkaline Phosphatase Assay; assay type: cell-based, human; conditions: for % Activation (Compound + 1 nM 17β-estradiol): 10^-6 M compound + 10^-9 M 17β-estradiol; for % Activation (Compound + 1 nM 17β-estradiol) / % Activation: 48 h; for % Activation: compound alone, percent of response related to 1 nM 17β-estradiol
Method: Cells were treated for 48 h prior to assay. […] Sample population for at each dose was n=8. […] Plates are placed at -80°C for a minimum of 15 minutes. Plates are thawed at 37°C followed by the addition of 150μL of 0.1 M Tris-HCl, pH 9.8, containing 4 mM para-nitrophenylphosphate (pNPP) to each well (final concentration, 3 mM pNPP). Absorbance and slope calculations were made using the […] Application program (Bio-Tek Instruments, Inc., Winooski, VT). […] Various compounds were assayed for estrogenic activity by the alkaline phosphatase method and corresponding ED50 values (95% C.I.) were calculated. The four listed in the following were used as reference standards: A description of such methods is provided by Holinka, […]., Kuramoto, H. and Gurpide, E. (1986) Effects of steroid hormones and antisteroids on alkaline phosphatase activity in human endometrial cancer cells (Ishikawa Line). Cancer Research, 46:2771-2774, and by […]. and by […] simple and sensitive microtiter plate estrogen bioassay based on stimulation alkaline phosphatase in Ishikawa cells; […] Endocrinology, 6:2757-2762.

estrogen receptor [1] = target: T1, estrogen receptor (Homo sapiens, UniProt P03372); assay: 2X VIT ERE Transfection Assay (Infection Luciferase Assay); assay type: cell-based; conditions: 24 h; for % Activation with 1 nM 17β-estradiol: 1 uM compound + 1 nM 17β-estradiol (test for estrogen antagonism); for % Activation: compound alone (1 uM), compared to 17β-estradiol
T1 sequence (P03372 1-595): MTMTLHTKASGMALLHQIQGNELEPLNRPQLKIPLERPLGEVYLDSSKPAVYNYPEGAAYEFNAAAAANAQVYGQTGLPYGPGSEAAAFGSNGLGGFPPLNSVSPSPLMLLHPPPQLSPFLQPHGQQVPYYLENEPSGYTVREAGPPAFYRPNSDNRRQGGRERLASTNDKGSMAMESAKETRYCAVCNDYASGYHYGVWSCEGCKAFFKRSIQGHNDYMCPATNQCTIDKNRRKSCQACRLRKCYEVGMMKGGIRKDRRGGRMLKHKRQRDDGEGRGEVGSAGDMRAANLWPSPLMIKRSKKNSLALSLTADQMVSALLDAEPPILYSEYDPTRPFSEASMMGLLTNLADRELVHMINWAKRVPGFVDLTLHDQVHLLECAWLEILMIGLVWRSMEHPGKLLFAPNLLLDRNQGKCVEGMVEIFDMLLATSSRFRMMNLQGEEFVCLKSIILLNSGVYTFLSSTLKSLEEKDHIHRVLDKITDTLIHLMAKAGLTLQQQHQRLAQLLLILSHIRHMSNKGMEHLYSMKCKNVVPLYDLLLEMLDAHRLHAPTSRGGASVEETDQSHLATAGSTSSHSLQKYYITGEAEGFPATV
Method: Chinese Hamster Ovary cells (CHO) which had been stably transfected with the human estrogen receptor were maintained in DMEM + 10% fetal bovine serum (FBS). 48h prior to treatment the growth medium was replaced with DMEM lacking phenol red + 10% dextran coated charcoal stripped FBS (treatment medium). Cells were plated at a density of 5000 cells/well in 96-well plates containing 200 µL of medium/well.
Reporter DNA (Promega plasmid pGL2 containing two tandem copies of the vitellogenin ERE in front of the minimal thymidine kinase promoter driving the luciferase gene) was combined with the B-galactosidase expression plasmid pCH110 (Pharmacia) and carrier DNA (pTZ18U) in the following ratio: • 10uG of reporter DNA • 5uG of pCH110DNA • 5 uG of pTZ18U • 20 uG of DNA/1 mL of transfection solution
20 uL of this mixture was added to each well of cells and remained on the cells for 16 h. […] Each treatment condition was performed on 8 wells (n=8) which were incubated for 24 h prior to the luciferase assay.
After removing the PBS, 25 uL of Promega lysis buffer was added to each well and allowed to stand at room temperature for 15 min, followed by 15 min at -80°C and 15 min at 37°C. 20 uL of lysate was transferred to an opaque 96 well plate for luciferase activity evaluation and the remaining lysate (5 uL) was used for the B-galactosidase activity evaluation (normalize transfection). The luciferan substrate (Promega) was added in 100 uL aliquots to each well automatically by the luminometer and the light produced (relative light units) was read 10 seconds after addition.
To the remaining 5 uL of lysate 45 uL of PBS was added. Then 50 uL of Promega B-galactosidase 2X assay buffer was added, mixed well and incubated at 37°C for 1 hour. A plate containing a standard curve (0.1 to 1.5 milliunits in triplicate) was set up for each experimental run. The plates were analyzed on a Molecular Devices spectrophotometric plate reader at 410 nm. The optical densities for the unknown were converted to milliunits of activity by mathematical extrapolation from the standard curve.
The luciferase data was generated as relative light units (RLUs) accumulated during a 10 second measurement and automatically transferred to a JMP (SAS Inc) file where background RLUs were subtracted. The B-galactosidase values were automatically imported into the file and these values were divided into the RLUs to normalize the data. The mean and standard deviations were determined from a n=8 for each treatment. […] These techniques are described by Tzukerman, M.T., Esty, A., Santiso-Mere, D., Danielian, P., Parker, M.G., Stein, R.B., Pike, J.W. and McDonnel, D.P. (1994). Human estrogen receptor transactivational capacity was determined by both cellular and promoter context and mediated by two functionally distinct intramolecular regions (see Molecular Endocrinology, 8:21-30).

estrogen receptor [2] = target: T1, estrogen receptor; assay: In vitro estrogen receptor binding assay (competition with [3H]-17β-estradiol); set-up: expressed in transfected cells; host or cells: CHO cells (ribosome-free cytosol); conditions: relative to 17β-estradiol=100; cytosol of CHO cells overexpressing the estrogen receptor
Method: CHO cells overexpressing the estrogen receptor were grown in 150 mm^2 dishes in DMEM + 10% dextran coated charcoal, stripped fetal bovine serum. The plates were washed twice with PBS and once with 10mM Tris-HCl, pH 7.4, 1mM EDTA. Cells were harvested by scraping the surface and then the cell suspension was placed on ice. Cells were disrupted with a hand-held motorized tissue grinder using two, 10-second bursts. The crude preparation was centrifuged at 12,000g for 20 minutes followed by a 60 minute spin at 100,000g to produce a ribosome free cytosol. The cytosol was then frozen and stored at -80°C. Protein concentration of the cytosol was estimated using the BCA assay with reference standard protein.
100uG/100uL of the receptor preparation was aliquoted per well. […] The plate was incubated at room temperature for 2.5 h. At the end of this incubation period 150 uL of ice-cold dextran coated charcoal (5% activated charcoal coated with 0.05% 69K dextran) was added to each well and the plate was immediately centrifuged at 99g for 5 minutes at 4°C. 200 uL of the supernatant solution was then removed for scintillation counting. Samples were counted to 2% or 10 minutes, whichever occurs first. […] Also, wells containing radioactivity but no cytosol were processed with charcoal to estimate unremovable DPM of [^3H]
Counts per minute (CPM) of radioactivity were automatically converted to disintegrated per minute (DPM) by the Beckman LS 7500 Scintillation Counter using a set of quenched standards to generate a H# for each sample.
For the generation of IC50 curves, % binding is plotted vs compound. […] For a description of these methods, see Hulme, E.C., ed. 1992. Receptor-Ligand Interactions: A Practical Approach. IRL Press, New York.(see especially chapter 8).

Compound: CNC(=O)/C=C/c1ccc(Cn2c(-c3ccc(O)cc3)c(C)c3cc(O)ccc32)cc1 [Example 15, (E)-N, Methyl-3-{4-[5-hydroxy-2-(4-hydroxy-phenyl)-3-methyl-indol-1-ylmethyl]-phenyl}-acrylamide]
% Activation (Compound + 1 nM 17β-estradiol) (Ishikawa cells): 5%
% Activation (Ishikawa cells): 0%
% Activation with 1 nM 17β-estradiol (estrogen receptor [1]): 31%
% Activation (estrogen receptor [1]): 15%
Estrogen Receptor Affinity (reported as RBA: 17β-estradiol=100) (estrogen receptor [2]): 53

Compound: Cc1c(-c2ccc(O)cc2)n(Cc2ccc(/C=C/C(N)=O)cc2)c2ccc(O)cc12 [Example 14, (E)-3-{4-[5-hydroxy-2-(4-hydroxy-phenyl)-3-methyl-indol-1-ylmethyl]-phenyl}-acrylamide]
% Activation (Compound + 1 nM 17β-estradiol) (Ishikawa cells): 14%
% Activation (Ishikawa cells): 2%
% Activation with 1 nM 17β-estradiol (estrogen receptor [1]): 57%
% Activation (estrogen receptor [1]): 19%
Estrogen Receptor Affinity (reported as RBA: 17β-estradiol=100) (estrogen receptor [2]): 32

% Activation with 1 nM 17β-estradiol (estrogen receptor [1]): 34%
% Activation (estrogen receptor [1]): 34%
Estrogen Receptor Affinity (reported as RBA: 17β-estradiol=100) (estrogen receptor [2]): 53
Compound: Cc1c(-c2ccc(O)cc2)n(Cc2ccc(C#CCN(C)C)cc2)c2ccc(O)cc12 [Example 21, 2-(4-Hydroxy-phenyl)-3-methyl-1-[4-(3-N, N-dimethyl-1-yl-prop-1-ynyl)-benzyl]-1H-indol-5-ol]
% Activation (Compound + 1 nM 17β-estradiol) (Ishikawa cells): 34%
% Activation (Ishikawa cells): 34%

Compound: CCCCN(C)C(=O)/C=C/c1ccc(Cn2c(-c3ccc(O)cc3)c(C)c3cc(O)ccc32)cc1 [Example 12, (E)-N-Butyl, N'-methyl-3-{4-[5-hydroxy-2-(4-hydroxy-phenyl)-3-methyl-indol-1-ylmethyl]-phenyl}-acrylamide]
% Activation (Compound + 1 nM 17β-estradiol) (Ishikawa cells): 16%
% Activation (Ishikawa cells): 7%
% Activation with 1 nM 17β-estradiol (estrogen receptor [1]): 24%
% Activation (estrogen receptor [1]): 13%
Estrogen Receptor Affinity (reported as RBA: 17β-estradiol=100) (estrogen receptor [2]): 114

Compound: O=C(c1ccc(OCCN2CCCCC2)cc1)c1c(-c2ccc(O)cc2)sc2cc(O)ccc12 [raloxifene, reference compound]
% Activation (Compound + 1 nM 17β-estradiol) (Ishikawa cells): 5%

Compound: Cc1c(-c2ccc(O)cc2)n(Cc2ccc(/C=C/C(=O)N3CCOCC3)cc2)c2ccc(O)cc12 [Example 13]
% Activation (Compound + 1 nM 17β-estradiol) (Ishikawa cells): 9%
% Activation (Ishikawa cells): 7%
% Activation with 1 nM 17β-estradiol (estrogen receptor [1]): 17%
% Activation (estrogen receptor [1]): 8%

EC50 (Ishikawa cells; Ishikawa cells, reference standards, read-out: ED50 values (95% C.I.), estrogenic activity by the alkaline phosphatase method): 1.42 nM
Compound: C[C@]12CC[C@@H]3c4ccc(O)cc4CC[C@H]3[C@@H]1CC[C@H]2O [17α-estradiol, reference compound]

% Activation with 1 nM 17β-estradiol (estrogen receptor [1]): 8%
% Activation (estrogen receptor [1]): 4%
Estrogen Receptor Affinity (reported as RBA: 17β-estradiol=100) (estrogen receptor [2]): 42
Compound: CCN(CC)C(=O)/C=C/c1ccc(Cn2c(-c3ccc(O)cc3)c(C)c3cc(O)ccc32)cc1 [Example 7, (E)-N, N-Diethyl-3-{4-[5-hydroxy-2-(4-hydroxy-phenyl)-3-methyl-indol-1-ylmethyl]-phenyl}-acrylamide]
% Activation (Compound + 1 nM 17β-estradiol) (Ishikawa cells): 9%
% Activation (Ishikawa cells): 1%

Compound: Cc1c(-c2ccc(O)cc2)n(Cc2ccc(/C=C/C(=O)NC(C)(C)C)cc2)c2ccc(O)cc12 [Example 8, 1(E)-N-tert-butyl-3-{4-[5-hydroxy-2-(4-hydroxy-phenyl)-3-methyl-indol-1-ylmethyl]-phenyl}-acrylamide]
% Activation (Compound + 1 nM 17β-estradiol) (Ishikawa cells): 22%
% Activation (Ishikawa cells): 10%
% Activation with 1 nM 17β-estradiol (estrogen receptor [1]): 78%
% Activation (estrogen receptor [1]): 6%
Estrogen Receptor Affinity (reported as RBA: 17β-estradiol=100) (estrogen receptor [2]): 40

Compound: CC/C(=C(\c1ccccc1)c1ccc(OCCN(C)C)cc1)c1ccccc1 [tamoxifen, reference compound]
% Activation (Compound + 1 nM 17β-estradiol) (Ishikawa cells): 45%

Compound: Cc1c(-c2ccc(O)cc2)n(Cc2ccc(/C=C/C(=O)N3CCCC3)cc2)c2ccc(O)cc12 [Example 9, (E)-Pyrrolidino-3-{4-[5-hydroxy-2-(4-hydroxy-phenyl)-3-methyl-indol-1-ylmethyl]-phenyl}-acrylamide]
% Activation (Compound + 1 nM 17β-estradiol) (Ishikawa cells): 11%
% Activation (Ishikawa cells): 3%
% Activation with 1 nM 17β-estradiol (estrogen receptor [1]): 8%
% Activation (estrogen receptor [1]): 6%
